The record followed here is US12403144B2, “HECT E3 ligase inhibitors and uses thereof” (IFOM FONDAZIONE ISTITUTO FIRC DI ONCOLOGIA MOLECOLARE, priority 2019, dated 2025).

Each structure is given as a SMILES string. Where a name gives a salt, the structure may show the parent alone.

The target in the assay is T1, untagged HECT of NEDD4 wild-type (WT) (E3 ligase) (Homo sapiens, UniProt P46934).
T1 construct: untagged HECT of NEDD4 wild-type (WT) (E3 ligase); made in house
T1 sequence (P46934 519-900 isoform P46934-4 limits assumed): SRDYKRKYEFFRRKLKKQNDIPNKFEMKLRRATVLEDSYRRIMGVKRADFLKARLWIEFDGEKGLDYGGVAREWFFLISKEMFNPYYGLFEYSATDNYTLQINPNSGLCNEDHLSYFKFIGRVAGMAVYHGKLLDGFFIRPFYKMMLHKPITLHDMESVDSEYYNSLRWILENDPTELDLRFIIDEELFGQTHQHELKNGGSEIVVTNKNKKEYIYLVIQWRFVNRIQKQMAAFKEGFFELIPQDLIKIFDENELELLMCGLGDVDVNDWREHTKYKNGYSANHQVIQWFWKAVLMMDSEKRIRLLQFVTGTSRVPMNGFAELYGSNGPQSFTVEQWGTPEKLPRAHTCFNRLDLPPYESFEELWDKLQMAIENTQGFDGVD
The assay is described as follows: In vitro ubiquitination assay TR-FRET based (self-ubiquitination of NEDD4). In kind it is biochemical. The note with it: at 11 μM; pre-incubated for 1 hour; AUC of 120 minutes kinetic; read-out: percentages of inhibition (NEDD4). The text has this: FIG. 1: TR-FRET kinetic assay performed with compound 12. […] Reactions were initiated with the addition of ATP. As labeled ubiquitin molecules become incorporated into chains they come into close proximity, resulting in energy transfer and increased signal to background detection. The activity of the enzyme is continuously and real time detected and it is expressed as % of signal/background during the time.
In order to quantitatively measure the self-ubiquitination process of the E3 HECT ligase NEDD4 the inventors employed a TR-FRET based assay. TR-FRET technology exploits the long-lasting emission of lanthanide fluorescence to interpose a short time-delay between FRET donor excitation and emission. This phenomenon enables to isolate real fluorescent signals from short-lived background emissions, thus reducing possible interference from compounds.
In the present study, elongation of the ubiqutin chain by NEDD4 is measured by adding bacterially expressed E1, His-tagged UBE2D3 (E2) and untagged HECT of NEDD4 wild-type (WT) (E3 ligase) (named in FIG. 1 as WT) enzymes to a mixture of Eu-cryptate ubiquitin, Cy5-ubiquitin and wild-type ubiquitin, combined in a ratio optimized for TR-FRET based conjugation (100×TRF-Ubiquitin Mix, SBB-TR0051). […] Bacterially expressed E1, His-tagged UBE2D3 (E2), untagged HECT NEDD4 (E3 ligase) WT and NEDD4 C/A enzymes were produced and purified as reported in E. Maspero et al. Methods Mol Biol. 1449:153-60 (2016).
Enzymatic incorporation of the labeled TRF-Ubiquitin mix into chains leads to an increase in fluorescence emission at 665 nm (emission of the acceptor Cy5-Ubiquitin, Emacceptor) and decrease at emission wavelength 620 nm (emission of the donor Eu-cryptate Ubiquitin, Emdonor).
The assay was performed in a 384-well plate format (Optiplate, Perkin Elmer, #6007290) on an automated liquid-handler (Hamilton STAR, Hamilton Robotics, Switzerland).
All compounds were dissolved in 100% DMSO and serially diluted in 96-well plates (from 100 μM to 0.005 μM).
Briefly, all reagents were thawed and kept on ice. A master mix containing E1, E2, E3 and TRF-Ubiquitin Mix (SBB-TR0051) diluted in the assay buffer (Tris-HCl pH 7.6 25 mM, NaCl 100 mM, MgCl2 5 mM and Tween 0.01%) is prepared and 50 μl/well is dispensed in a 384 well plate. 3 μl of compounds dissolved in DMSO in the above-indicated concentration range were added and pre-incubated for 1 hour. Final E1, E2 and E3 concentrations in the assay buffer (Tris-HCl pH 7.6 25 mM, NaCl 100 mM, MgCl2 5 mM and Tween 0.01%) were 30, 350 and 50 nanomolars, respectively. The reaction was initiated with the addition of ATP (22 μl of 2 mM ATP, JenaBioscience, NU-1010) and was allowed to proceed for 120 minutes, measuring fluorescence emission at 665 nm and 620 nm in real-time on an EnSpire microplate reader (Perkin Elmer).
Kinetic raw data were analyzed by Area Under the Curve (AUC) method using Prism GraphPad software.
% signal/background corresponds to the following equation: (Experimental signal−Background signal)/Background signal×100%
Experimental signal corresponds to the signal obtained by the enzymatic reaction in presence of the vehicle (DMSO) and/or the different compound concentrations. Background signal corresponds to the signal obtained by the enzymatic reaction in absence of ATP.
The relative potency of the compounds was evaluated by dose-response curves following the enzymatic reaction of HECT NEDD4 WT in real time for 120 minutes.
Percentage of inhibition is then determined by the equation: % inhibition=100×[1−(X)/(MAX)],
where MAX correspond to AUC of the vehicle (DMSO) treated enzyme, and X corresponds to the AUC of the compound treated enzyme.
As for `CCOC(=O)/C=C/CNCCCCN1c2cc(Cl)ccc2C(=O)N(CCO)c2ccccc21` [Compound 46, Ethyl (E)-4-({4-[3-chloro-10-(2-hydroxyethyl)-11-oxo-10,11-dihydro-5H-dibenzo[b,e][1,4]diazepin-5-yl]butyl}amino)but-2-enoate maleate], the inhibition (in general, the drop in the measured response relative to a control, in per cent) at 11 µM is above 50%.
For the compound `CCOC(=O)/C=C/CNCCCN1c2ccccc2CCc2ccc(Br)cc21` [Compound 15, Ethyl (E)-4-[3-(3-bromo-10,11-dihydro-5H-dibenzo[b,f]azepin-5-yl)propylamino]but-2-enoate maleate], the inhibition at 11 µM is above 50%.
As to `CCOC(=O)/C=C/CNCCCCN1c2ccccc2NC(=O)c2ccc(Cl)cc21` [Compound 24, Ethyl (E)-4-{[4-(3-chloro-11-oxo-10,11-dihydro-5H-dibenzo[b,e][1,4]diazepin-5-yl)butyl]amino}but-2-enoate maleate], the inhibition at 11 µM is above 50%.
Then `CCOC(=O)/C=C/CNCCCCN1c2ccc(OCCOC)cc2CCc2ccc(Cl)cc21` [Compound 97, Ethyl (E)-4-{4-[7-Chloro-2-(2-methoxy-ethoxy)-10,11-dihydro-5H-dibenzo[b,f]azepin-5-yl]-butylamino}-but-2-enoate maleate], with above 50%.
As for `COCCOCCOC(=O)/C=C/CNCCCCN1c2ccccc2CCc2ccc(Cl)cc21` [Compound 93, 2-(2-Methoxy-ethoxy)-ethyl (E)-4-[4-(3-chloro-10,11-dihydro-dibenzo[b,f]azepin-5-yl)-butylamino]but-2-enoate maleate], the inhibition at 11 µM was above 50%.
For `CCOC(=O)/C=C/CNCCCCN1c2cc(Cl)ccc2C(=O)N(CCOCCOCCOC)c2ccccc21` [Compound 87, Ethyl (E)-4-{[4-(3-chloro-10-[2-[2-(2-methoxyethoxy)ethoxy]ethyl]-11-oxo-10,11-dihydro-5H-dibenzo[b,e][1,4]diazepin-5-yl)butyl]amino}but-2-enoate maleate], the inhibition at 11 µM was above 50%.
The same measure for `CCOC(=O)/C=C/CNCCCN1c2ccccc2NC(=O)c2ccc(Cl)cc21` [Compound 23, Ethyl (E)-4-{[3-(3-chloro-11-oxo-10,11-dihydro-5H-dibenzo[b,e][1,4]diazepin-5-yl)propyl]amino}but-2-enoate maleate]: 30 to 50%; for `CCOC(=O)/C=C/CN(CC)CCCCN1c2ccccc2CCc2ccc(Cl)cc21` [Compound 64, Ethyl (E)-4-{[4-(3-chloro-10,11-dihydro-dibenzo[b,f]azepin-5-yl)butyl]-ethyl-amino}but-2-enoate maleate]: above 50%.
As for `CCOC(=O)/C=C/CNCCCCN1c2ccc(OC)cc2CCc2ccc(Cl)cc21` [Compound 67, Ethyl (E)-4-[4-(7-Chloro-2-methoxy-10,11-dihydro-dibenzo[b,f]azepin-5-yl)-butylamino]-but-2-enoate maleate], the inhibition at 11 µM is above 50%.
For the compound `CCOC(=O)/C=C/CNCCCN1c2ccccc2NC(=O)c2ccc(C(F)(F)F)cc21` [Compound 25, Ethyl (E)-4-{[3-(11-oxo-3-(trifluoromethyl)-10,11-dihydro-5H-dibenzo[b,e][1,4]diazepin-5-yl)propyl]amino}but-2-enoate maleate], the inhibition at 11 µM is below 30%.
As to `CCOC(=O)/C=C/CNCCCN1c2cc(Cl)ccc2CCc2cnn(C)c21` [Compound 30, Ethyl (E)-4-{[3-(8-chloro-1-methyl-4,5-dihydropyrazolo-[3,4-b][1]-benzazepin-10(1H)-yl)propyl]amino}but-2-enoate maleate], the inhibition at 11 µM was above 50%.
As to `CN(C/C=C/C(N)=O)CCCCN1c2ccccc2CCc2ccc(Cl)cc21` [Compound 72, (E)-4-[4-(3-Chloro-10,11-dihydro-5H-dibenzo[b,f]azepin-5-yl)butyl-methyl-amino]but-2-enamide], the inhibition at 11 µM is above 50%.
For the compound `CCOC(=O)/C=C/CNCCCN1c2cc(Cl)ccc2C(=O)N(C)c2ccccc21` [Compound 27, Ethyl (E)-4-{[3-(3-chloro-10-methyl-11-oxo-10,11-dihydro-5H-dibenzo[b,e][1,4]diazepin-5-yl)propyl]amino}but-2-enoate maleate], the inhibition at 11 µM was above 50%.
On to `CCOC(=O)/C=C/CN(CCCCN1c2ccccc2CCc2ccc(Cl)cc21)C(C)C` [Compound 65, Ethyl (E)-4-{[4-(3-chloro-10,11-dihydro-dibenzo[b,f]azepin-5-yl)butyl]-isopropyl-amino}but-2-enoate maleate], for which the inhibition at 11 µM is above 50%.
As to `C#CCOCCN1C(=O)c2ccc(Cl)cc2N(CCCCNC/C=C/C(=O)OCC)c2ccccc21` [Compound 88, Ethyl (E)-4-{[4-[3-chloro-10-[2-(prop-2-yn-1-yloxy)ethyl]-11-oxo-10,11-dihydro-5H-dibenzo[b,e][1,4]diazepin-5-yl)butyl]amino}but-2-enoate maleate], the inhibition at 11 µM is above 50%.
Then `CC(C)ONC(=O)/C=C/CNCCCCN1c2ccccc2CCc2ccc(Cl)cc21` [Compound 81, (E)-4-[4-(3-chloro-10,11-dihydro-5H-dibenzo[b,f]azepin-5-yl)butylamino]-N-isopropoxy-but-2-enamide maleate], with above 50%.
The same measure for `CC(=O)/C=C/CN(C)CCCN1c2ccccc2CCc2ccc(Cl)cc21` [Compound 7, (E)-5-[3-(3-chloro-10,11-dihydro-5H-dibenzo[b,f]azepin-5-yl)propyl-methyl-amino]pent-3-en-2-one maleate]: above 50%; for `CCOC(=O)/C=C/CNCCCCN1c2ccccc2C(=O)N(CCCO)c2ccc(Cl)cc21` [Compound 51, Ethyl (E)-4-({4-[7-chloro-10-(3-hydroxypropyl)-11-oxo-10,11-dihydro-5H-dibenzo[b,e][1,4]diazepin-5-yl]butyl}amino)but-2-enoate maleate]: above 50%; for `COC(=O)/C=C/CN(C)CCCCN1c2cc(Cl)ccc2COc2ccccc21` [Compound 68, Methyl (E)-4-[4-(3-chlorodibenzo[b,e][1,4]oxazepin-5(11H)-yl)butyl-methyl-amino]but-2-enoate]: above 50%.
Then `CN(C/C=C/C(=O)OCCOCCOCCOCCOCCOCCNC(=O)CCCC[C@@H]1SC[C@@H]2NC(=O)N[C@@H]21)CCCCN1c2ccccc2CCc2ccc(Cl)cc21` [Compound 95, 2-(2-{2-[2-(2-{2-[5-((3aS,4S,6aR)-2-Oxo-hexahydro-thieno[3,4-d]imidazol-4-yl)-pentanoylamino]-ethoxy}-ethoxy)-ethoxy]-ethoxy}-ethoxy)-ethyl (E)-4-{[4-(3-chloro-10,11-dihydro-dibenzo[b,f]azepin-5-yl)-butyl]-methyl-amino}but-2-enoate], with above 50%; and `CCOC(=O)/C=C/CNCCCCCN1c2ccccc2CCc2ccc(Cl)cc21` [Compound 13, Ethyl (E)-4-[5-(3-chloro-10,11-dihydro-5H-dibenzo[b,f]azepin-5-yl)pentylamino]but-2-enoate maleate], with above 50%.
